pEC50: −log10 of the molar value.

In the assay the target is T1, Nuclear factor erythroid 2-related factor 2 (Homo sapiens, UniProt Q16236).
T1 sequence (Q16236 whole entry): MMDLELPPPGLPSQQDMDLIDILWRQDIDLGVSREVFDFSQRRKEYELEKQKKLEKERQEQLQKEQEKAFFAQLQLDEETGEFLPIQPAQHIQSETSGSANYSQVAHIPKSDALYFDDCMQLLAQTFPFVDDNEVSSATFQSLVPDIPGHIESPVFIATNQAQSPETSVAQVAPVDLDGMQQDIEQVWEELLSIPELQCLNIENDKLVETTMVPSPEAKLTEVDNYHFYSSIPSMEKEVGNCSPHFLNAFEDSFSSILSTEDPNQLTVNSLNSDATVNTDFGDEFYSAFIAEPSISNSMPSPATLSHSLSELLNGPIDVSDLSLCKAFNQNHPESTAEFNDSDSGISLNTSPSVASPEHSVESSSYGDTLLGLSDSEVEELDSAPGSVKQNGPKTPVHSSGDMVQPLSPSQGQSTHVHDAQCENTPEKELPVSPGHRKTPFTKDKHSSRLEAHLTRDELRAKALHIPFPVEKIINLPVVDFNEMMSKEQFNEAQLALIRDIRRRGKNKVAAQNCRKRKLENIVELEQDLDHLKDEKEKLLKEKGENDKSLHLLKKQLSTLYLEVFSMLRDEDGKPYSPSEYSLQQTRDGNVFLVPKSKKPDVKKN
Kind of assay: Induction of Nrf2-mediated ARE activity in human HepG2-ARE-C8 cells after 12 hrs by luciferase reporter gene assay. For orientation: Reporter assays use an easily measured gene product as a stand-in for the process of interest.

Broadly, the pEC50 is the EC50 on a negative log10 scale, so that one unit is a factor of ten. A lower pEC50 goes with a large EC50. Take `COc1ccc2c(c1)C1CN/C(=C\C(=O)c3ccccc3)C(=O)N1CC2` (configuration not stated): the negative logarithm of the EC50 (pEC50) was below 4.00. Molecule `COc1cc2c(cc1OC)C1CN/C(=C\C(=O)c3cccc(Cl)c3)C(=O)N1CC2` (configuration not stated) showed a pEC50 below 4.00. As for `COc1ccc2c(c1)C1CN/C(=C\C(=O)c3cccc(F)c3)C(=O)N1CC2` (configuration not stated), the figure is below 4.00; as for `COc1cccc(C(=O)/C=C2\NCC3c4cc(OC)ccc4CCN3C2=O)c1` (configuration not stated), below 4.00.

Regarding `COc1ccccc1C(=O)/C=C1\NCC2c3ccccc3CCN2C1=O` (configuration not stated), the pEC50 was below 4.00.

As to `O=C(/C=C1\NCC2c3ccccc3CCN2C1=O)c1ccccc1[N+](=O)[O-]` (configuration not stated), the negative-log EC50 (pEC50) is below 4.00. As for `COc1ccc(C(=O)/C=C2\NCC3c4ccccc4CCN3C2=O)cc1OC` (configuration not stated), the figure is 4.03; as for `O=C(/C=C1\NCC2c3ccccc3CCN2C1=O)c1ccc(-c2ccccc2)cc1` (configuration not stated), below 4.00. As for `O=C(/C=C1\NCC2c3ccccc3CCN2C1=O)c1ccc(F)c(F)c1` (configuration not stated), the figure is below 4.00; as for `COc1cccc(C(=O)/C=C2\NCC3c4ccccc4CCN3C2=O)c1` (configuration not stated), below 4.00. `O=C(/C=C1\NCC2c3ccccc3CCN2C1=O)c1ccc([N+](=O)[O-])cc1` (configuration not stated) showed a pEC50 below 4.00. As for `O=C(/C=C1\NCC2c3ccccc3CCN2C1=O)c1ccc(Cl)cc1` (configuration not stated), the figure is below 4.00; as for `O=C(/C=C1\NCC2c3ccccc3CCN2C1=O)c1ccccc1Cl` (configuration not stated), below 4.00; as for `COc1ccc2c(c1)CCN1C(=O)/C(=C/C(=O)c3cccc(F)c3)NCC21` (configuration not stated), below 4.00. `COc1ccc2c(c1)CCN1C(=O)/C(=C/C(=O)c3ccccc3)NCC21` (configuration not stated) had a pEC50 below 4.00. `COc1cccc2c1CCN1C(=O)/C(=C/C(=O)c3ccccc3F)NCC21` (configuration not stated) showed a pEC50 below 4.00.

As to `COc1cc2c(cc1OC)C1CN/C(=C\C(=O)c3ccc(F)cc3)C(=O)N1CC2` (configuration not stated), the negative-log EC50 (pEC50) was 4.09. For `COc1cc2c(cc1OC)C1CN/C(=C\C(=O)c3cccc(F)c3)C(=O)N1CC2` (configuration not stated) the value was 4.04; for `COc1cc2c(cc1OC)C1CN/C(=C\C(=O)c3cccc([N+](=O)[O-])c3)C(=O)N1CC2` (configuration not stated), 4.30. For `COc1cc2c(cc1OC)C1CN/C(=C\C(=O)c3ccccc3F)C(=O)N1CC2` (configuration not stated) the value was 4.12; for `O=C(/C=C1\NCC2c3ccccc3CCN2C1=O)c1cc(F)cc(F)c1` (configuration not stated), 4.23. For `COc1cc2c(cc1OC)C1CN/C(=C\C(=O)c3ccccc3)C(=O)N1CC2` (configuration not stated), the negative-log EC50 (pEC50) was below 4.00. As for `COc1ccc2c(c1)C1CN/C(=C\C(=O)c3cccc(Cl)c3)C(=O)N1CC2` (configuration not stated), the figure is below 4.00; as for `Cc1ccc(C(=O)/C=C2\NCC3c4ccccc4CCN3C2=O)cc1` (configuration not stated), below 4.00. The molecule `O=C(/C=C1\NCC2c3ccccc3CCN2C1=O)c1ccc(F)cc1` (configuration not stated) gave a negative-log EC50 (pEC50) below 4.00. As to `O=C(/C=C1\NCC2c3ccccc3CCN2C1=O)c1cccc(Br)c1` (configuration not stated), the pEC50 is 4.23.

The molecule `COc1ccc2c(c1)C1CN/C(=C\C(=O)c3cccc([N+](=O)[O-])c3)C(=O)N1CC2` (configuration not stated) gave a negative logarithm of the EC50 (pEC50) below 4.00. In turn, `O=C(/C=C1\NCC2c3ccccc3CCN2C1=O)c1ccc(Cl)cc1Cl` (configuration not stated) had a negative logarithm of the EC50 (pEC50) below 4.00.

In the case of `COc1ccc2c(c1)CCN1C(=O)/C(=C/C(=O)c3ccccc3F)NCC21` (configuration not stated), the pEC50 was below 4.00.

Regarding `COc1cccc2c1CCN1C(=O)/C(=C/C(=O)c3ccccc3)NCC21` (configuration not stated), the pEC50 is 4.23.

In turn, `COc1ccc2c(c1)C1CN/C(=C\C(=O)c3ccc(F)cc3)C(=O)N1CC2` (configuration not stated) gave a pEC50 of 4.06.

On to `COc1ccc2c(c1)C1CN/C(=C\C(=O)c3ccccc3F)C(=O)N1CC2` (configuration not stated), for which the pEC50 is below 4.00. As for `O=C(/C=C1\NCC2c3ccccc3CCN2C1=O)c1cccc(F)c1` (configuration not stated), the figure is below 4.00. For `O=C(/C=C1\NCC2c3ccccc3CCN2C1=O)c1cccc([N+](=O)[O-])c1` (configuration not stated) the value was below 4.00; for `O=C(/C=C1\NCC2c3ccccc3CCN2C1=O)c1cccc(Cl)c1` (configuration not stated), below 4.00. As for `O=C(/C=C1\NCC2c3ccccc3CCN2C1=O)c1cccc(C(F)(F)F)c1` (configuration not stated), the figure is below 4.00; as for `COc1cccc2c1CCN1C(=O)/C(=C/C(=O)c3cccc(F)c3)NCC21` (configuration not stated), below 4.00. In turn, `COc1cccc(C(=O)/C=C2\NCC3c4cc(OC)c(OC)cc4CCN3C2=O)c1` (configuration not stated) gave a pEC50 below 4.00. In turn, `COc1ccc(C(=O)/C=C2\NCC3c4ccccc4CCN3C2=O)cc1` (configuration not stated) had a pEC50 below 4.00. Turning to `O=C(/C=C1\NCC2c3ccccc3CCN2C1=O)c1ccccc1F` (configuration not stated), the pEC50 was below 4.00.

`O=C(/C=C1\NCC2c3ccccc3CCN2C1=O)c1ccccc1` (configuration not stated) gave a negative logarithm of the EC50 (pEC50) below 4.00. For `CC(C)(C)c1cc(O)ccc1O` [CHEBI:78886] the value was 4.04.

These data come from BindingDB's records for doi:10.1021/jm400944k (China Pharmaceutical University, 2013).
